Results from ChEMBL document CHEMBL3352438, “Synthesis, characterization, molecular docking and anti-tubercular activity of Plumbagin-Isoniazid Analog and its β-cyclodextrin conjugate” (2014).
In brackets after ≈: the same amount, converted by molar mass.

Legend:
Assay type in all cases: functional
Settings in all cases: ATCC 27294, 120 h
[1] = tested on: Mycobacterium tuberculosis; assay: Antitubercular activity against Mycobacterium tuberculosis ATCC 27294 in 7H9 medium after 5 days by Alamar blue assay
[2] = tested on: Mycobacterium tuberculosis; assay: Antitubercular activity against Mycobacterium tuberculosis ATCC 27294 in high iron condition after 5 days by Alamar blue assay
[3] = tested on: Mycobacterium tuberculosis; assay: Antitubercular activity against Mycobacterium tuberculosis ATCC 27294 in low iron condition after 5 days by Alamar blue assay

Structure (SMILES) | MIC [1] [µg/mL] | MIC [2] [µg/mL] | MIC [3] [µg/mL]
NNC(=O)c1ccncc1 [ISONIAZID] | 0.25 (≈ 1.82 µM) | 0.125 (≈ 0.911 µM) | 32 (≈ 233 µM)
CC1=CC(=O)c2c(O)cccc2C1=O [PLUMBAGIN] | 32 (≈ 170 µM) | 4 (≈ 21.3 µM) | 128 (≈ 680 µM)
CC1=C/C(=N\NC(=O)c2ccncc2)c2c(O)cccc2C1=O | 8 (≈ 26 µM) | 0.5 (≈ 1.63 µM) | 2 (≈ 6.51 µM)
